Measurements published in ChEMBL document CHEMBL3763098, “Induction of apoptosis by cyclobutanones and derived polycyclic -lactones: a preliminary analysis of antiproliferative activity” (Medchemcomm, 2015).
Structures can show the parent of a compound that is named as a salt. Active and inactive are the calls of the source. The calls are words filed in the database; no cut-off is given here.

Key:
[1] = Cytotoxicity against human PC3 cells assessed as inhibition of cell growth after 48 hrs by sulforhodamine B assay; type: functional, cell-based; conditions: PC-3, 48 h
[2] = Cytotoxicity against human HCT116 cells assessed as inhibition of cell growth after 48 hrs by sulforhodamine B assay; type: functional, cell-based; conditions: HCT-116, 48 h
[3] = Cytotoxicity against human THP1 cells assessed as inhibition of cell growth after 48 hrs by sulforhodamine B assay; type: functional, cell-based; conditions: THP-1, 48 h
A549 = test: Cytotoxicity against human A549 cells assessed as inhibition of cell growth after 48 hrs by sulforhodamine B assay; type: functional, cell-based; conditions: A549, 48 h
[4] = Cell cycle arrest in human PC3 cells assessed as accumulation at subG1 phase at 15 uM after 12 hrs by propidium iodide staining based flow cytometry (reference value: 29.6%); type: functional; conditions: PC-3
PC-3 [5] = test: Induction of apoptosis in human PC3 cells assessed as decrease in cell size at IC50 incubated for 12 hrs by scanning electron microscopy; type: functional, cell-based
[6] = Cell cycle arrest in human PC3 cells assessed as accumulation at subG1 phase at 5 uM after 12 hrs by propidium iodide staining based flow cytometry (reference value: 29.6%); type: functional; conditions: PC-3
CHO [7] = test: Induction of apoptosis in CHO cells assessed as necrotic cells at 10 uM after 24 hrs by Annexin V-FITC/propidium iodide staining based flow cytometry (reference value: 4.3%); type: cell-based, Cricetulus griseus; conditions: chinese hamster
[8] = Cell cycle arrest in human PC3 cells assessed as accumulation at subG1 phase after 12 hrs by propidium iodide staining based flow cytometry; type: functional; conditions: PC-3
PC-3 [9] = test: Induction of apoptosis in human PC3 cells assessed as plasma membrane blebbing at IC50 incubated for 6 hrs by scanning electron microscopy; type: functional, cell-based
[10] = Induction of apoptosis in CHO cells assessed as viable cells at 10 uM after 24 hrs by Annexin V-FITC/propidium iodide staining based flow cytometry (reference value: 91.8%); type: cell-based, Cricetulus griseus; conditions: chinese hamster, read-out: Activity
[11] = Cell cycle arrest in human PC3 cells assessed as accumulation at subG1 phase at 10 uM after 12 hrs by propidium iodide staining based flow cytometry (reference value: 29.6%); type: functional; conditions: PC-3
CHO [12] = test: Induction of apoptosis in CHO cells assessed as late apoptotic cells at 10 uM after 24 hrs by Annexin V-FITC/propidium iodide staining based flow cytometry (reference value: 1%); type: cell-based, Cricetulus griseus; conditions: chinese hamster
PC-3 [13] = test: Induction of apoptosis in human PC3 cells assessed as plasma membrane blebbing at IC50 incubated for 12 hrs by scanning electron microscopy; type: functional, cell-based
PC-3 [14] = test: Induction of apoptosis in human PC3 cells assessed as mitochondrial membrane potential depolarization after 12 hrs using rhodamine 123 by spectrofluorimetric analysis; type: functional, cell-based
PC-3 [15] = test: Induction of apoptosis in human PC3 cells assessed as cell rounding at IC50 incubated for 12 hrs by DAPI staining based confocal microscopy; type: functional
CHO [16] = test: Induction of apoptosis in CHO cells assessed as early apoptotic cells at 10 uM after 24 hrs by Annexin V-FITC/propidium iodide staining based flow cytometry (reference value: 3%); type: cell-based, Cricetulus griseus; conditions: chinese hamster
PC-3 [17] = test: Induction of apoptosis in human PC3 cells assessed as cell shrinkage at IC50 incubated for 12 hrs by DAPI staining based confocal microscopy; type: functional
PC-3 [18] = test: Induction of apoptosis in human PC3 cells assessed as plasma membrane blebbing at IC50 incubated for 12 hrs by DAPI staining based confocal microscopy; type: functional, cell-based
PC-3 [19] = test: Induction of apoptosis in human PC3 cells assessed as smoothening of cell surface at IC50 incubated for 6 hrs by scanning electron microscopy; type: functional, cell-based
PC-3 [20] = test: Induction of apoptosis in human PC3 cells assessed as increase in intracellular ROS level after 24 hrs using DCFH-DA by spectrofluorimetric analysis; type: functional, cell-based
PC-3 [21] = test: Induction of apoptosis in human PC3 cells assessed as smoothening of cell surface at IC50 incubated for 12 hrs by scanning electron microscopy; type: functional, cell-based
[22] = Cell cycle arrest in human PC3 cells assessed as accumulation at subG1 phase at 2 uM after 12 hrs by propidium iodide staining based flow cytometry (reference value: 29.6%); type: functional; conditions: PC-3

Row | Compound | IC50 [1] [µM] | IC50 [2] [µM] | IC50 [3] [µM] | IC50 (A549) [µM] | other results
1 | CC1(C)CCC[C@@]2(C)C1=C[C@H]1C(=O)O[C@H](c3ccc(Cl)c(Cl)c3)[C@H]12 | 12 | 20 | > 50 | > 50 | 
2 | CO[C@@]12[C@H](COC(N)=O)C3=C(C(=O)C(C)=C(N)C3=O)N1C[C@@H]1N[C@@H]12 [MITOMYCIN] | 0.2 |  | 0.5 |  | 
3 | O=c1[nH]cc(F)c(=O)[nH]1 [FLUOROURACIL] |  |  |  | 0.5 | 
4 | CC1(C)CCC[C@@]2(C)C1=C[C@H]1C(=O)O[C@H](c3ccccc3F)[C@H]12 | > 50 | > 50 | > 50 | > 50 | 
5 | COc1ccccc1[C@H]1C(=O)[C@@H]2C=C3C(C)(C)CCC[C@]3(C)[C@H]12 | 8 | 12 | 10 | 10 | Activity [4]: 74.1%; Activity (PC-3 [5]): Active; Activity [6]: 45.2%; Activity (CHO [7]): 1.1%; Activity [8]: Dose-dependent effect; Activity (PC-3 [9]): Active; viability at 24 h, 10 µM [10]: 54.5%; Activity [11]: 56.6%; Activity (CHO [12]): 6.9%; Activity (PC-3 [13]): Active; Activity (PC-3 [14]): Dose-dependent effect; Activity (PC-3 [15]): Active; Activity (CHO [16]): 37.6%; Activity (PC-3 [17]): Active; Activity (PC-3 [18]): Active; Activity (PC-3 [19]): Active; Activity (PC-3 [20]): Dose-dependent effect; Activity (PC-3 [21]): Active
6 | CC1(C)CCC[C@@]2(C)C1=C[C@H]1C(=O)[C@H](c3ccccc3Br)[C@H]12 | > 50 | 19 | 10 | 28 | 
7 | Cc1ccccc1[C@H]1C(=O)[C@@H]2C=C3C(C)(C)CCC[C@]3(C)[C@H]12 | > 50 | > 50 | > 50 | 28 | 
8 | Cc1ccccc1[C@H]1OC(=O)[C@@H]2C=C3C(C)(C)CCC[C@]3(C)[C@H]12 | 21 | > 50 | > 50 | 23 | 
9 | COc1cccc2c1C(=O)c1c(O)c3c(c(O)c1C2=O)C[C@@](O)(C(=O)CO)C[C@@H]3O[C@H]1C[C@H](N)[C@H](O)[C@H](C)O1 [DOXORUBICIN HYDROCHLORIDE] |  | 0.01 |  |  | 
10 | CC1(C)CCC[C@@]2(C)C1=C[C@H]1C(=O)O[C@H](c3ccccc3Br)[C@H]12 | > 50 | > 50 | > 50 | > 50 | 
11 | CC[C@@]1(O)C(=O)OCc2c1cc1n(c2=O)Cc2cc3ccccc3nc2-1 [CAMPTOTHECIN] |  |  |  |  | Activity (CHO [7]): 1.2%; viability at 24 h, 10 µM [10]: 74.8%; Activity (CHO [12]): 2.4%; Activity [22]: 60.9%; Activity (CHO [16]): 21.6%
12 | CC1(C)CCC[C@@]2(C)C1=C[C@H]1C(=O)O[C@H](c3ccccc3Cl)[C@H]12 | > 50 | > 50 | > 50 | 40 | 
13 | CC1(C)CCC[C@@]2(C)C1=C[C@H]1C(=O)[C@H](c3ccccc3Cl)[C@H]12 | > 50 | > 50 | > 50 | 25 | 
14 | CC1(C)CCC[C@@]2(C)C1=C[C@H]1C(=O)[C@H](c3ccccc3F)[C@H]12 | > 50 | 17 | 18 | 36 | 
15 | CC1(C)CCC[C@@]2(C)C1=C[C@H]1C(=O)[C@H](c3ccc(Cl)c(Cl)c3)[C@H]12 | > 50 | 38 | > 50 | > 50 | 
16 | COc1ccccc1[C@H]1OC(=O)[C@@H]2C=C3C(C)(C)CCC[C@]3(C)[C@H]12 | 10 | 15 | > 50 | 18 | Activity [4]: 77.5%; Activity (PC-3 [5]): Active; Activity [6]: 59.8%; Activity (CHO [7]): 0.8%; Activity (PC-3 [9]): Active; viability at 24 h, 10 µM [10]: 56.8%; Activity [11]: 68.1%; Activity (CHO [12]): 6.1%; Activity (PC-3 [13]): Active; Activity (PC-3 [14]): Dose-dependent effect; Activity (PC-3 [15]): Active; Activity (CHO [16]): 36.2%; Activity (PC-3 [17]): Active; Activity (PC-3 [18]): Active; Activity (PC-3 [19]): Active; Activity (PC-3 [20]): Dose-dependent effect; Activity (PC-3 [21]): Active
